One assay has as its system SK-BR-3 cells. Nature of the assay: SK-BR-3 anti-proliferation assay for payloads (CellTiter-Glo). The class given is cell-based. As to conditions: Homo sapiens, free payload, 120-144 h, read-out: SKBR3. As to the method:
The cell line used in the anti-proliferation assays was SK-BR-3, a human breast, adenocarcinoma (pleural effusion) cell line. The cells were grown in McCoy's 5a Medium+10% FBS. To run the assay for payloads, the cells (40 μL, 700 cells) were added to each well in a 384-well plate and incubated for 24 hours at 37° C. with 5% CO2. Then the cells were treated with test compounds at various concentrations using HPD300, and then normalize the DMSO to 0.5%. The control wells contain cells and the medium but lack the test compounds. The plates were incubated for 120 h at 37° C. with 5% CO2. To run the assay for ADCs and some key payloads, the cells (80 μL, 1000 cells) were added to each well in a 96-well plate and incubated for twenty-four hours at 37° C. with 5% CO2. Next, the ADCs or payloads were diluted with Opti-Mem with 0.1% BSA. The cells were treated with test compounds or ADCs (20 μL) at various concentrations in appropriate cell culture medium (total volume, 0.1 mL). The final concentration of DMSO was adjusted to 0.2% and the Opti-Mem with 0.1% BSA was adjusted to 5%. The control wells contained cells and the medium but lacked the test compounds. The plates were incubated for 144 h at 37° C. with 5% CO2. CTG reagent was then added to the wells (25 μL/384-well or 100 μL/96-well). After the plates were shaken for 10 min and then incubated for 10 min at room temperature, paste the clear bottom with white back seal and record luminescence with Envision. The inhibition % was calculated according to the following equation: inhibition %=[1-(assay-blank)/(control-blank)]×100.

The next assay relates to HCT15 cells. Nature of the assay: HCT15 anti-proliferation / cell killing assay (CellTiter-Glo), with or without verapamil. The following applies: Homo sapiens. The class given is cell-based, human. The method, then: The cell line used in the anti-proliferation assays was HCT15, a human colon, colorectal carcinoma cell line. The HCT15 cells were grown in RPMI medium 1640+10% FBS. To run the assay, the cells (40 μL, 400 cells) were added to each well in a 384-well plate and incubated for twenty-four hours at 37° C. with 5% CO2. One hour before adding compounds, freshly dilute Verapamil to 0.2 mg/ml in ddH2O. Add 1 μL/well diluted Verapamil to Verapamil treatment wells and 1 μL/well ddH2O to the non-Verapamil treatment wells. Return plates to the incubator at 37° C. with 5% CO2. Then the cells were treated with test compounds at various concentrations using HPD300, and then normalize the DMSO to 0.5%. The control wells contained cells and the medium but lack the test compounds. The plates were incubated for 120 hours at 37° C. with 5% CO2. CTG reagent was then added to the wells (25 μL). After the plates were shaken for 10 min and then incubated for 10 min at room temperature, paste the clear bottom with white back seal and record luminescence with Envision. The inhibition % was calculated according to the following equation: inhibition %=[1−(assay-blank)/(control-blank)]×100.

Setting [1] is: HCT15 cells, no verapamil, 120 h (5 days), read-out: HCT-15.
Where [2] appears, read: HCT-15, HCT15 cells pre-treated with verapamil, 120 h, read-out: HCT-15 with verapamil.

Like-named read-outs stand apart in the source and are kept apart here.

In the case of `CCCCCCN(C(=O)[C@@H](NC(=O)[C@H]1CCCCN1)[C@@H](C)CC)[C@H](C[C@@H](OCCCO)c1nc(C(=O)N[C@@H](Cc2ccc(NCC(=O)O)cc2)CC(C)(C)C(=O)O)cs1)C(C)C` (mixture of isomers) [PA23, Rac-(R)-5-(4-((carboxymethyl)amino)phenyl)-4-(2-((1S,3S)-3-((2R,3R)—N-hexyl-3-methyl-2-((S)-piperidine-2-carboxamido)pentanamido)-1-(3-hydroxypropoxy)-4-methylpentyl)thiazole-4-carboxamido)-2,2-dimethylpentanoic acid], the results for the IC50 in the assay with SK-BR-3 cells, with HCT15 cells (setting [1]) and in the assay with HCT15 cells (setting [2]) were 9.35 nM, above 1000 nM and above 1000 nM, respectively.

In the case of `CCCCCCN(C(=O)[C@@H](NC(=O)[C@H]1CCCCN1C)[C@@H](C)CC)[C@H](C[C@@H](OC(C)=O)c1nc(C(=O)N[C@@H](Cc2ccc(N(CCO)C(=O)CN)cc2)CC(C)(C)C(=O)O)cs1)C(C)C` (racemic) [PA19, Rac-(R)-4-(2-((1S,3S)-1-acetoxy-3-((2R,3R)—N-hexyl-3-methyl-2-((S)-1-methylpiperidine-2-carboxamido)pentanamido)-4-methylpentyl)thiazole-4-carboxamido)-acid], the IC50 in the assay with SK-BR-3 cells was 1.84 nM; in the assay with HCT15 cells (setting [1]), 10.8 nM; in the assay on HCT15 cells (setting [2]) it was 1.8 nM.

As to `CCCCCCN(C(=O)[C@@H](NC(=O)[C@H]1CCCCN1CCO)[C@@H](C)CC)[C@H](C[C@@H](OCC)c1nc(C(=O)N[C@@H](Cc2ccc(NC(=O)CN)cc2)CC(C)(C)C(=O)O)cs1)C(C)C` [PA9, (S)-5-(4-(2-aminoacetamido)phenyl)-4-(2-((1R,3R)-1-ethoxy-3-((2S,3S)—N-hexyl-2-((R)-1-(2-hydroxyethyl)piperidine-2-carboxamido)-3-methylpentanamido)-4-methylpentyl)thiazole-4-carboxamido)-2,2-dimethylpentanoic acid], the IC50 in the assay on SK-BR-3 cells came out at 5.38 nM; in the assay on HCT15 cells (setting [1]) it was 9.89 nM; in the assay on HCT15 cells (setting [2]), 1.08 nM.

Turning to `CCCCCCN(C(=O)[C@@H](NC(=O)[C@H]1CCCCN1)[C@@H](C)CC)[C@H](C[C@@H](OC(C)=O)c1nc(C(=O)N[C@@H](Cc2ccc(NCC(=O)O)cc2)CC(C)(C)C(=O)O)cs1)C(C)C` (mixture of isomers) [PA17, Rac-(R)-4-(2-((1S,3S)-1-acetoxy-3-((2R,3R)—N-hexyl-3-methyl-2-((S)-piperidine-2-carboxamido)pentanamido)-4-methylpentyl)thiazole-4-carboxamido)-5-(4-((carboxymethyl)amino)phenyl)-2,2-dimethylpentanoic acid], the IC50 stood at 0.131 nM in the assay with SK-BR-3 cells, 1.39 nM in the assay on HCT15 cells (setting [1]) and 0.09 nM in the assay with HCT15 cells (setting [2]).

As for `CCCCCCN(C(=O)[C@@H](NC(=O)[C@H]1CCCCN1CCN)[C@@H](C)CC)[C@H](C[C@@H](OCC)c1nc(C(=O)N[C@@H](Cc2ccc(O)cc2)CC(C)(C)C(=O)O)cs1)C(C)C` [PA4, (S)-4-(2-((1R,3R)-3-((2S,3S)-2-((R)-1-(2-aminoethyl)piperidine-2-carboxamido)-N-hexyl-3-methylpentanamido)-1-ethoxy-4-methylpentyl)thiazole-4-carboxamido)-5-(4-hydroxyphenyl)-2,2-dimethylpentanoic acid], the values for the IC50 in the assay with SK-BR-3 cells, with HCT15 cells (setting [1]) and with HCT15 cells (setting [2]) were above 1 nM, 85 nM and 6.19 nM, respectively.

Turning to `CCCCCCN(C(=O)[C@@H](NC(=O)[C@@]1(C)CCCN1)[C@@H](C)CC)[C@H](C[C@@H](OC(C)=O)c1nc(C(=O)N[C@@H](Cc2ccc(O)cc2)CC(C)(C)C(=O)O)cs1)C(C)C` [Compound P22, reference compound], the IC50 amounted to 0.087 nM in the assay on SK-BR-3 cells, 0.265 nM in the assay with HCT15 cells (setting [1]) and 0.078 nM in the assay on HCT15 cells (setting [2]).

On to `CCCCCCN(C(=O)[C@@H](NC(=O)[C@H]1CCCCN1CCO)[C@@H](C)CC)[C@H](C[C@@H](OC(C)=O)c1nc(C(=O)N[C@@H](Cc2ccc(N)c(F)c2)CC(C)(C)C(=O)O)cs1)C(C)C` [PA8, (4S)-4-({2-[(1R,3R)-1-(acetyloxy)-3-[(2S,3S)—N-hexyl-2-{[(2R)-1-(2-hydroxyethyl)piperidin-2-yl]formamido}-3-methylpentanamido]-4-methylpentyl]-1,3-thiazol-4-yl}formamido)-5-(4-amino-3-fluorophenyl)-2,2-dimethylpentanoic acid], for which the IC50 with SK-BR-3 cells turned out to be 0.017 nM; in the assay with HCT15 cells (setting [1]) it was 0.072 nM; with HCT15 cells (setting [2]), 0.029 nM.

On to `CCCCCCN(C(=O)[C@@H](NC(=O)[C@@]1(C)CCCN1CCN)[C@@H](C)CC)[C@H](C[C@@H](OC(C)=O)c1nc(C(=O)N[C@@H](Cc2ccc(O)cc2)CC(C)(C)C(=O)O)cs1)C(C)C` (mixture of isomers) [PA5, (S)-4-(2-((1RS,3RS)-1-acetoxy-3-((2SR,3SR)-2-((R)-1-(2-aminoethyl)-2-methylpyrrolidine-2-carboxamido)-N-hexyl-3-methylpentanamido)-4-methylpentyl)thiazole-4-carboxamido)-5-(4-hydroxyphenyl)-2,2-dimethylpentanoic acid], for which the IC50 in the assay on SK-BR-3 cells was 18.3 nM; with HCT15 cells (setting [1]), above 100 nM; with HCT15 cells (setting [2]), 15.9 nM.

Take `CCCCCCN(C(=O)[C@@H](NC(=O)[C@H]1CCCCO1)[C@@H](C)CC)[C@H](C[C@@H](OCC)c1nc(C(=O)N[C@@H](Cc2ccc(N)cc2)CC(C)(C)C(=O)O)cs1)C(C)C` [PA28]: the values for the IC50 with SK-BR-3 cells and with HCT15 cells (setting [1]) were above 100 nM and 154 nM, respectively.

With `CCCCCCN(C(=O)[C@@H](NC(=O)[C@@]1(C)CCCN1CCO)[C@@H](C)CC)[C@H](C[C@@H](OC(C)=O)c1nc(C(=O)N[C@@H](Cc2ccc(N)cc2)CC(C)(C)C(=O)O)cs1)C(C)C` [PA6, (4S)-4-({2-[(1R,3R)-1-(acetyloxy)-3-[(2S,3S)—N-hexyl-2-{[(2R)-1-(2-hydroxyethyl)-2-methylpyrrolidin-2-yl]formamido}-3-methylpentanamido]-4-methylpentyl]-1,3-thiazol-4-yl}formamido)-5-(4-aminophenyl)-2,2-dimethylpentanoic acid], the results for the IC50 in the assay on SK-BR-3 cells, in the assay on HCT15 cells (setting [1]) and with HCT15 cells (setting [2]) were 0.514 nM, 3.27 nM and 0.62 nM, respectively.

Turning to `CCCCCCN(C(=O)[C@@H](NC(=O)[C@H]1CCCCN1C)[C@@H](C)CC)[C@H](C[C@@H](OC(=O)NCCOCCOCCO)c1nc(C(=O)N[C@@H](Cc2ccc(N)c(F)c2)CC(C)(C)C(=O)O)cs1)C(C)C` (mixture of isomers) [PA25, (S)-5-(4-amino-3-fluorophenyl)-4-(2-((3RS,6SR,8SR)-3-((RS)-sec-butyl)-5-hexyl-19-hydroxy-6-isopropyl-1-((R)-1-methylpiperidin-2-yl)-1,4,10-trioxo-9,14,17-trioxa-2,5,11-triazanonadecan-8-yl)thiazole-4-carboxamido)-2,2-dimethylpentanoic acid], the IC50 with SK-BR-3 cells amounted to 1.6 nM; in the assay with HCT15 cells (setting [1]) it was 0.477 nM; in the assay with HCT15 cells (setting [2]), 0.158 nM.

Turning to `CCCCCCN(C(=O)[C@@H](NC(=O)[C@H]1CCCCN1C)[C@@H](C)CC)[C@H](C[C@@H](OC(C)=O)c1nc(C(=O)N[C@@H](Cc2ccc(N)cc2)CC(C)(C)C(=O)NCC(=O)O)cs1)C(C)C` (racemic) [PA29, Rac-((R)-4-(2-((1S,3S)-1-acetoxy-3-((2R,3R)—N-hexyl-3-methyl-2-((S)-1-methylpiperidine-2-carboxamido)pentanamido)-4-methylpentyl)thiazole-4-carboxamido)-5-(4-aminophenyl)-2,2-dimethylpentanoyl)glycine], the IC50 was 1.47 nM in the assay with SK-BR-3 cells, 97.1 nM in the assay with HCT15 cells (setting [1]) and 9.7 nM in the assay on HCT15 cells (setting [2]).

For `C#CCCCON(C(=O)[C@@H](NC(=O)[C@@]1(C)CCCN1CCO)[C@@H](C)CC)[C@H](C[C@@H](OC(C)=O)c1nc(C(=O)N[C@@H](Cc2ccc(N)cc2)CC(C)(C)C(=O)O)cs1)C(C)C` [PA3, (4S)-4-({2-[(1R,3R)-1-(acetyloxy)-3-[(2S,3S)-2-{[(2R)-1-(2-hydroxyethyl)-2-methylpyrrolidin-2-yl]formamido}-3-methyl-N-(pent-4-yn-1-yloxy)pentanamido]-4-methylpentyl]-1,3-thiazol-4-yl}formamido)-5-(4-aminophenyl)-2,2-dimethylpentanoic acid], the figures for the IC50 in the assay with SK-BR-3 cells, in the assay on HCT15 cells (setting [1]) and in the assay on HCT15 cells (setting [2]) were 1.46 nM, 7.7 nM and 0.741 nM, respectively.

(Values after patent US20230414775A1, “TUBULYSINS AND PROTEIN-TUBULYSIN CONJUGATES” (priority 2021, published 2023).)
